Laboratory results reported in patent publication US8134015B2, “Compound inhibiting in vivo phosphorous transport and medicine containing the same” (Kyowa Hakko Kirin Co., Ltd., priority 2003, dated 2012).

What follows are compounds tested against T1, rat NaPi-2b (Rattus norvegicus, UniProt Q9JJ09) (assay: Sodium-dependent phosphate uptake of Xenopus oocytes which expressed NaPi-2b (32P)). Details: Xenopus oocytes expressing rat NaPi-2b, 32P radioactive phosphorus; read-out: IC50 (phosphate uptake inhibitory activity).
T1 construct: expressed in transfected cells; host or cells: Xenopus oocytes injected with cRNA
T1 sequence (Q9JJ09 1-695): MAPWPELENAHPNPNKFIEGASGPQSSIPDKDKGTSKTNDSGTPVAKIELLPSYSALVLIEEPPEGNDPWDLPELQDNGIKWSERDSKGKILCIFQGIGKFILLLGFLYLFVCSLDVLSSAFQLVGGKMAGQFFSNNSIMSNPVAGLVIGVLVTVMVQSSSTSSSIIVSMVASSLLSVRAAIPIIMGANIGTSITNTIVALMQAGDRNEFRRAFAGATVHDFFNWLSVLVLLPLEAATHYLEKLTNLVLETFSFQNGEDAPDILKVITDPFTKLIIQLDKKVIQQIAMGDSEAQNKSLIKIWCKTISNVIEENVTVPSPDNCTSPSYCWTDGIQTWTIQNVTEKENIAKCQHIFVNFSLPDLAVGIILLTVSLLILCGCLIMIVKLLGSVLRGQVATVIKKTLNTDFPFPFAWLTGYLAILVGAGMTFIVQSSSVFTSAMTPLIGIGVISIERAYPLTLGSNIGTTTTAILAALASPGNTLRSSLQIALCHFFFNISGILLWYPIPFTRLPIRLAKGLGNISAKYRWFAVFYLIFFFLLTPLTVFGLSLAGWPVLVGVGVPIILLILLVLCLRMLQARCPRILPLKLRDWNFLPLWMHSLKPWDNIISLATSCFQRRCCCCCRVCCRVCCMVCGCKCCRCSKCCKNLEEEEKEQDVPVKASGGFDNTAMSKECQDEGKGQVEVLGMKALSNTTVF
Assay type: cell-based
Outline: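 Oocytes injected with rat NaPi-2b cRNA, cultured 2 d, then 32P uptake measured with compound. Values: % inhibition at 300 and 100 μM, both from one inhibition curve.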

Structure (SMILES)	IC50 [µM]
CCN(CC)CCN(C)Cc1cccc(C(=O)Nc2scc(C)c2C(=O)N/N=C/c2cccc(F)c2)c1 [Compound 566, 3-{[(2-Diethylamino-ethyl)-methyl-amino]-methyl}-N-[3-(3-fluoro-benzylidene-hydrazinocarbonyl)-4-methyl-thiophen-2-yl]-benzamide]	14.6
CCN(CC)CCN(C)Cc1cccc(C(=O)Nc2scc(C)c2C(=O)N/N=C/c2ccc(OC)cc2)c1 [Compound 568, 3-{[(2-Diethylamino-ethyl)-methyl-amino]-methyl}-N-[3-(4-methoxy-benzylidene-hydrazinocarbonyl)-4-methyl-thiophen-2-yl]-benzamide]	4.32
Cc1ccc(/C=N/NC(=O)c2c(C)csc2NC(=O)c2cccc(CN3CCC(N4CCCCC4)CC3)c2)cc1 [Compound 570, 3-[1,4′]Bipiperidinyl-1′-ylmethyl-N-[4-methyl-3-(4-methyl-benzylidene-hydrazinocarbonyl)-thiophen-2-yl]-benzamide]	6.04
Cc1csc(NC(=O)c2cccc(CN3CCC(N4CCCCC4)CC3)c2)c1C(=O)N/N=C/c1ccc(F)cc1 [Compound 571, 3-[1,4′]Bipiperidinyl-1′-ylmethyl-N-[3-(4-fluoro-benzylidene-hydrazinocarbonyl)-4-methyl-thiophen-2-yl]-benzamide]	5.27
Cc1csc(NC(=O)c2cccc(CN3CCC(N4CCCCC4)CC3)c2)c1C(=O)N/N=C/c1cccc(F)c1 [Compound 572, 3-[1,4′]Bipiperidinyl-1′-ylmethyl-N-[3-(3-fluoro-benzylidene-hydrazinocarbonyl)-4-methyl-thiophen-2-yl]-benzamide]	4.12
COc1ccc(/C=N/NC(=O)c2c(C)csc2NC(=O)c2cccc(CN3CCC(N4CCCCC4)CC3)c2)cc1 [Compound 574, 3-[1,4′]Bipiperidinyl-1′-ylmethyl-N-[3-(4-methoxy-benzylidene-hydrazinocarbonyl)-4-methyl-thiophen-2-yl]-benzamide]	6.93
Cc1ccc(/C=N/NC(=O)c2c(C)csc2NC(=O)c2cccc(CN(CC(C)O)CC(C)O)c2)cc1 (stereo not drawn) [Compound 588, 3-{[Bis-(2-hydroxy-propyl)-amino]-methyl}-N-[4-methyl-3-(4-methyl-benzylidene-hydrazinocarbonyl)-thiophen-2-yl]-benzamide]	9.33
Cc1csc(NC(=O)c2cccc(CN(CC(C)O)CC(C)O)c2)c1C(=O)N/N=C/c1ccc(F)cc1 (stereo not drawn) [Compound 589, 3-{[Bis-(2-hydroxy-propyl)-amino]-methyl}-N-[3-(4-fluoro-benzylidene-hydrazinocarbonyl)-4-methyl-thiophen-2-yl]-benzamide]	< 3
Cc1csc(NC(=O)c2cccc(CN(CC(C)O)CC(C)O)c2)c1C(=O)N/N=C/c1cccc(F)c1 (stereo not drawn) [Compound 590, 3-{[Bis-(2-hydroxy-propyl)-amino]-methyl}-N-[3-(3-fluoro-benzylidene-hydrazinocarbonyl)-4-methyl-thiophen-2-yl]-benzamide]	6.18
Cc1ccc(/C=N/NC(=O)c2c(C)csc2NC(=O)c2cccc(CN3CCC(O)CC3)c2)cc1C [Compound 593, N-[3-(3,4-Dimethyl-benzylidene-hydrazinocarbonyl)-4-methyl-thiophen-2-yl]-3-(4-hydroxy-piperidin-1-ylmethyl)-benzamide]	< 3
Cc1ccc(/C=N/NC(=O)c2c(C)csc2NC(=O)c2cccc(CN3CCC(O)CC3)c2)cc1 [Compound 594, 3-(4-Hydroxy-piperidin-1-ylmethyl)-N-[4-methyl-3-(4-methyl-benzylidene-hydrazinocarbonyl)-thiophen-2-yl]-benzamide]	3.6

The next lines start with the values.

IC50 [µM]	Structure (SMILES)
< 1	CCN(CC)CCN(C)Cc1cccc(C(=O)Nc2scc(C)c2C(=O)N/N=C/c2ccc(Cl)c(C(F)(F)F)c2)c1 [Compound 567, N-[3-(4-Chloro-3-trifluoromethyl-benzylidene-hydrazinocarbonyl)-4-methyl-thiophen-2-yl]-3-{[(2-diethylamino-ethyl)-methyl-amino]-methyl}-benzamide]
< 3	Cc1ccc(/C=N/NC(=O)c2c(C)csc2NC(=O)c2cccc(CN3CCC(N4CCCCC4)CC3)c2)cc1C [Compound 569, 3-[1,4′]Bipiperidinyl-1′-ylmethyl-N-[3-(3,4-dimethyl-benzylidene-hydrazinocarbonyl)-4-methyl-thiophen-2-yl]-benzamide]
1.75	Cc1csc(NC(=O)c2cccc(CN3CCC(N4CCCCC4)CC3)c2)c1C(=O)N/N=C/c1ccc(Cl)c(C(F)(F)F)c1 [Compound 573, 3-[1,4′]Bipiperidinyl-1′-ylmethyl-N-[3-(4-chloro-3-trifluoromethyl-benzylidene-hydrazinocarbonyl)-4-methyl-thiophen-2-yl]-benzamide]
< 3	Cc1ccc(/C=N/NC(=O)c2c(C)csc2NC(=O)c2cccc(CN3CCN(CCO)CC3)c2)cc1C [Compound 575, N-[3-(3,4-Dimethyl-benzylidene-hydrazinocarbonyl)-4-methyl-thiophen-2-yl]-3-[4-(2-hydroxy-ethyl)-piperazin-1-ylmethyl]-benzamide]
< 3	Cc1ccc(/C=N/NC(=O)c2c(C)csc2NC(=O)c2cccc(CN3CCN(CCO)CC3)c2)cc1 [Compound 576, 3-[4-(2-Hydroxy-ethyl)-piperazin-1-ylmethyl]-N-[4-methyl-3-(4-methyl-benzylidene-hydrazinocarbonyl)-thiophen-2-yl]-benzamide]
< 3	Cc1csc(NC(=O)c2cccc(CN3CCN(CCO)CC3)c2)c1C(=O)N/N=C/c1ccc(F)cc1 [Compound 577, N-[3-(4-Fluoro-benzylidene-hydrazinocarbonyl)-4-methyl-thiophen-2-yl]-3-[4-(2-hydroxy-ethyl)-piperazin-1-ylmethyl]-benzamide]
< 3	Cc1csc(NC(=O)c2cccc(CN3CCN(CCO)CC3)c2)c1C(=O)N/N=C/c1cccc(F)c1 [Compound 578, N-[3-(3-Fluoro-benzylidene-hydrazinocarbonyl)-4-methyl-thiophen-2-yl]-3-[4-(2-hydroxy-ethyl)-piperazin-1-ylmethyl]-benzamide]
< 3	Cc1csc(NC(=O)c2cccc(CN3CCN(CCO)CC3)c2)c1C(=O)N/N=C/c1ccc(Cl)c(C(F)(F)F)c1 [Compound 579, N-[3-(4-Chloro-3-trifluoromethyl-benzylidene-hydrazinocarbonyl)-4-methyl-thiophen-2-yl]-3-[4-(2-hydroxy-ethyl)-piperazin-1-ylmethyl]-benzamide]
< 3	COc1ccc(/C=N/NC(=O)c2c(C)csc2NC(=O)c2cccc(CN3CCN(CCO)CC3)c2)cc1 [Compound 580, 3-[4-(2-Hydroxy-ethyl)-piperazin-1-ylmethyl]-N-[3-(4-methoxy-benzylidene-hydrazinocarbonyl)-4-methyl-thiophen-2-yl]-benzamide]
< 3	CCN(CC)CCNCc1cccc(C(=O)Nc2scc(C)c2C(=O)N/N=C/c2ccc(C)c(C)c2)c1 [Compound 581, 3-[(2-Diethylamino-ethylamino)-methyl]-N-[3-(3,4-dimethyl-benzylidene-hydrazinocarbonyl)-4-methyl-thiophen-2-yl]-benzamide]
< 3	CCN(CC)CCNCc1cccc(C(=O)Nc2scc(C)c2C(=O)N/N=C/c2ccc(C)cc2)c1 [Compound 582, 3-[(2-Diethylamino-ethylamino)-methyl]-N-[4-methyl-3-(4-methyl-benzylidene-hydrazinocarbonyl)-thiophen-2-yl]-benzamide]
< 3	CCN(CC)CCNCc1cccc(C(=O)Nc2scc(C)c2C(=O)N/N=C/c2ccc(F)cc2)c1 [Compound 583, 3-[(2-Diethylamino-ethylamino)-methyl]-N-[3-(4-fluoro-benzylidene-hydrazinocarbonyl)-4-methyl-thiophen-2-yl]-benzamide]
< 3	CCN(CC)CCNCc1cccc(C(=O)Nc2scc(C)c2C(=O)N/N=C/c2cccc(F)c2)c1 [Compound 584, 3-[(2-Diethylamino-ethylamino)-methyl]-N-[3-(3-fluoro-benzylidene-hydrazinocarbonyl)-4-methyl-thiophen-2-yl]-benzamide]
< 3	CCN(CC)CCNCc1cccc(C(=O)Nc2scc(C)c2C(=O)N/N=C/c2ccc(Cl)c(C(F)(F)F)c2)c1 [Compound 585, N-[3-(4-Chloro-3-trifluoromethyl-benzylidene-hydrazinocarbonyl)-4-methyl-thiophen-2-yl]-3-[(2-diethylamino-ethylamino)-methyl]-benzamide]
< 3	CCN(CC)CCNCc1cccc(C(=O)Nc2scc(C)c2C(=O)N/N=C/c2ccc(OC)cc2)c1 [Compound 586, 3-[(2-Diethylamino-ethylamino)-methyl]-N-[3-(4-methoxy-benzylidene-hydrazinocarbonyl)-4-methyl-thiophen-2-yl]-benzamide]
< 3	Cc1ccc(/C=N/NC(=O)c2c(C)csc2NC(=O)c2cccc(CN(CC(C)O)CC(C)O)c2)cc1C (stereo not drawn) [Compound 587, 3-{[Bis-(2-hydroxy-propyl)-amino]-methyl}-N-[3-(3,4-dimethyl-benzylidene-hydrazinocarbonyl)-4-methyl-thiophen-2-yl]-benzamide]
